# Literature values as cited in patent US20030158237A1, “Combination of antioxidant substances for the treatment of alzheimer's disease” (priority 2001, published 2003).
# Experiments:
# [1] = tested on: isolated LDL; settings: 0.025-0.3 mg/l added to isolated LDL; dose dependent
# [2] = tested on: NF-kappa B binding induced by ceramide; settings: in comparison with N-acetylcystein, acetate d-alpha-tocopherol, ascorbic acid
# [3] = tested on: DNA fragmentation induced by low-dose t-BuOOH; settings: mouse
# [4] = tested on: 341 patients; settings: single-agent therapy, 2 years; vitamin E 2,000 UI/daily, selegiline 10 mg daily
# [5] = tested on: hippocampal cell cultures
molecule,measurement,setting,value
"O=C(O)C=Cc1ccc(O)c(O)c1 [caffeic acid, 3-(3,4-Dihydroxyphenyl)-2-propenoic acid]",time of oxidation of LDL,[1],prolonged
same,activity of the NF-kappa B binding induced by ceramide,[2],inhibits significantly
same,apoptotic response induced by ceramide,[2],inhibits significantly
NC(=O)c1cccnc1 [nicotinamide],DNA fragmentation,[3],able to prevent DNA fragmentation
C#CCN(C)[C@H](C)Cc1ccccc1 [selegiline],retarded cognitive deterioration,[4],25%
vitamin E,retarded cognitive deterioration,[4],25%
same,adverse effects with high doses,3000 IU,"indigestion, gastric distress, diarrhea and severe cramps"
same,adverse symptoms (uncommon),in vivo,"cataract, haemorrhage risk in patient with vitamin K deficiency, and syncope"
same,beta A4 induced cell death,[5],reduces beta A4 induced cell death
